Where two headings read alike, the source gives them in different places.
Molecular target: T1, human type 5 17β-hydroxysteroid dehydrogenase (Homo sapiens, UniProt P42330)
T1 construct: screen again a human placental λgt11 cDNA to get the full length cDNA clone; expressed in transfected cells; host or cells: human embryonal kidney 293 cells (pCMV / pCMV-neo vector)
T1 sequence (P42330 1-323): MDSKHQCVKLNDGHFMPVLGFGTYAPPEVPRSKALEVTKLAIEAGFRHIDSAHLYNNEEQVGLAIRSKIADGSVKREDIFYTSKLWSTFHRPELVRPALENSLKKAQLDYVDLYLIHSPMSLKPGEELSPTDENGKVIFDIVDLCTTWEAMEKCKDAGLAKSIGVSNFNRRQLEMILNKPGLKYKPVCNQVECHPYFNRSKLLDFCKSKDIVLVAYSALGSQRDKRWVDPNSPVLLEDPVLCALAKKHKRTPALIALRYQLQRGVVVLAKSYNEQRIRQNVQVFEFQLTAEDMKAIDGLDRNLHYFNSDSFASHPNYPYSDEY
Test: Inhibition of human type 5 17β-HSD activity in transfected 293 cells
Format: cell-based
Outline: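 Human type 5 17β-HSD cDNA in a CMV-promoter vector, transfected by calcium phosphate (1 to 10 μg plasmid per 10^6 cells) into 293 cells grown in DMEM with 10% FBS at 37 °C.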

[1] = Table 4′, read-out: Inhibition Type V 17β-HSD IC50
[2] = Inhibition Type V 17β-HSD IC50, Table 4′

SMILES: CC1(C)CCC2(CCC3C4CCc5c(cc(Cl)c(OS(C)(=O)=O)c5Cl)C4CCC32C)OC1=O (centres unmarked) [EM-1392-CS]
- IC50 [1]: 19 nM

SMILES: COCCOc1cc2c(cc1F)C1CCC3(C)C(CCC34CCC(C)(C)C(=O)O4)C1CC2 (centres unmarked) [EM-1393-CS]
- IC50 [1]: 16 nM

SMILES: COc1ccc2c(c1)C(=O)CC1C2CC[C@@]2(C)C1CC[C@@]21CCC(C)(C)C(=O)O1 (some centres unmarked) [EM-1394]
- IC50 [1]: 9 nM

SMILES: COCCOc1cc2c(cc1C#N)C1CC[C@@]3(C)C(CC[C@@]34CCC(C)(C)C(=O)O4)C1CC2 (some centres unmarked) [EM-1396]
- IC50 [2]: 13 nM

SMILES: CC1(C)CCC2(CCC3C4CCc5cc(C(=O)OCc6ccccc6)ccc5C4CCC32C)OC1=O (centres unmarked) [EM-1398]
- Inhibition Type V 17β-HSD % Inh. at 3 · 10^−6 (Table 4′): 89%
- Inhibition Type V 17β-HSD % Inh. at 3 · 10^−7 (Table 4′): 70%

SMILES: CC1(C)CC[C@@]2(CCC3C4CCc5cc(C(=O)O)ccc5C4CC[C@@]32C)OC1=O (stereo partly drawn) [EM-1401, 3-Carboxy-1,3,5(10)-estratrien-17(R)-spiro-2′-(5′,5′-dimethyl-6′-oxo)tetrahydropyran]
- IC50 [1]: 4 ± 1.5 nM

SMILES: COCCOc1cc2c(cc1C(=O)OC)C1CC[C@@]3(C)C(CC[C@@]34CCC(C)(C)C(=O)O4)C1CC2 (stereo partly drawn) [EM-1402-CS, 2-Carbomethoxy-3-(2″-methoxyethyloxy)-1,3,5(10)-estratrien 17(R)-spiro-2′-(5′,5′-dimethyl-6′-oxo)tetrahydropyran]
- IC50 [1]: 12 nM

SMILES: CN(C)C(=O)c1ccc2c(c1)CCC1C2CCC2(C)C1CCC21CCC(C)(C)C(=O)O1 (centres unmarked) [EM-1403]
- IC50 [1]: 7.2 ± 1.6 nM

SMILES: CC1(C)CC[C@@]2(CCC3C4CCc5cc(C(N)=O)ccc5C4CCC32C)OC1=O (some centres unmarked) [EM-1404]
- IC50 [2]: 3.2 ± 1.5 nM

SMILES: COCCOc1cc2c(cc1C(=O)O)C1CCC3(C)C(CCC34CCC(C)(C)C(=O)O4)C1CC2 [EM-1405, 2-Carboxy-3-(2″-methoxyethyloxy)-1,3,5(10)-estratrien-17(R)-spiro-2′-(5′,5′-dimethyl-6′-oxo)tetrahydropyran]
- IC50 [1]: 23 nM

SMILES: CC1(C)CC[C@@]2(CCC3C4CCc5cc6oncc6cc5C4CC[C@@]32C)OC1=O (stereo partly drawn) [EM-1407-CS, 1,3,5(10)-estratrien-(2,3-oximino)-17(R)-spiro-2′-(5′,5′-dimethyl-6′-oxo)tetrahydropyran]
- IC50 [1]: 12 ± 3 nM

SMILES: COCCOc1ccc2c(c1)C(=O)CC1C2CCC2(C)C1CCC21CCC(C)(C)C(=O)O1 (centres unmarked) [EM-1408-CS]
- IC50 [1]: 5.5 ± 1 nM

SMILES: COc1cc2c(cc1C(F)(F)F)C1CCC3(C)C(CCC34CCC(C)(C)C(=O)O4)C1CC2 [EM-1409, 3-Methoxy-2-trifluoromethyl-1,3,5(10)-estratrien-17(R)-spiro-2′-(5′,5′-dimethyl-6′-oxo)tetrahydropyran]
- IC50 [1]: 170 ± 70 nM

SMILES: COc1cc2c(cc1C)C1CCC3(C)C(CCC34CCC(C)(C)C(=O)O4)C1CC2 (centres unmarked) [EM-1412-CS]
- IC50 [1]: 54 nM

SMILES: COCCOc1cc2c(cc1C(=O)N(C)C)C1CCC3(C)C(CCC34CCC(C)(C)C(=O)O4)C1CC2 (centres unmarked) [EM-1413-CS]
- IC50 [1]: 17 nM

SMILES: COCCOc1cc2c(cc1C(N)=O)C1CC[C@@]3(C)C(CC[C@@]34CCC(C)(C)C(=O)O4)C1CC2 (stereo partly drawn) [EM-1424, 2-Carbamoyl-3-(2″-methoxyethyloxy)-1,3,5(10)-estratrien 17(R)-spiro-2′-(5′,5′-dimethyl-6′-oxo)tetrahydropyran]
- IC50 [1]: 9.5 nM

SMILES: COCCOc1cc2c(cc1C(F)(F)F)[C@H]1CC[C@@]3(C)[C@@H](CC[C@@]34CCC(C)(C)C(=O)O4)[C@@H]1CC2 [EM-1438, 3-(2′-Methoxyethoxy)-2-trifluoromethyl-1,3,5(10)-estratrien-17(R)-spiro-2′-(5′,5′-dimethyl-6′-oxo)tetrahydropyran]
- Inhibition Type V 17β-HSD % Inh. at 3 · 10^−6 (Table 4′): 95.2%
- Inhibition Type V 17β-HSD % Inh. at 3 · 10^−7 (Table 4′): 90.6%

SMILES: CC1(C)CCC2(CCC3C4CCc5cc(O)c(C#N)cc5C4CCC32C)OC1=O (centres unmarked) [EM-01645]
- IC50 [1]: 4.5 ± 0.3 nM

SMILES: CC1(C)CCC2(CCC3C4CCc5cc(O)c(C(N)=O)cc5C4CCC32C)OC1=O (centres unmarked) [EM-01660]
- IC50 [1]: 5.6 ± 0.4 nM

SMILES: CN(C)C(=O)c1cc2c(cc1O)CCC1C2CCC2(C)C1CCC21CCC(C)(C)C(=O)O1 (centres unmarked) [EM-01661-B]
- IC50 [1]: 19.2 ± 1 nM

SMILES: COC(=O)c1cc2c(cc1O)CCC1C2CCC2(C)C1CCC21CCC(C)(C)C(=O)O1 (centres unmarked) [EM-01662]
- IC50 [1]: 35 ± 5 nM

SMILES: CC12CCC3c4ccc(O)cc4CCC3C1CCC21CC=CC(=O)O1 [PB-132-140, 3-hydroxy-1,3,5(10)-estratrien-17(R)-spiro-2′-(4′,5′-dihydro-6′-oxo)pyran]
- IC50 [1]: 49 ± 5 nM

SMILES: CC1CC(=O)OC2(CCC3C4CCc5cc(O)ccc5C4CCC32C)C1 [PB-132-142, 3-Hydroxy-1,3,5(10)-estratrien-17(R)-spiro-2′-(4′-methyl-6′-oxo)tetrahydropyran]
- IC50 [1]: 19 ± 1.5 nM

SMILES: COC(=O)C1CCC2(CCC3C4CCc5cc(O)ccc5C4CCC32C)OC1=O [PB-132-146, 3-Hydroxy-1,3,5(10)-estratrien-17(R)-2′-(5′-methoxycarbonyl-6′-oxo)tetrahydropyran]
- IC50 [1]: 72 ± 3 nM

SMILES: C=CCC1CCC2(CCC3C4CCc5cc(O)ccc5C4CCC32C)OC1=O [PB-132-152, 3-Hydroxy-1,3,5(10)-estratrien-17(R)-2′-(5′-allyl-6′-oxo)tetrahydropyran]
- IC50 [1]: 107 ± 9 nM

SMILES: CC(=O)O[C@]1(C(C)=O)CCC2C3C=C(C)C4=CC(=O)CC[C@]4(C)C3CC[C@@]21C (some centres unmarked) [megestrol acetate, reference compound]
- inhibition of type 5 17β-hydroxysteroid dehydrogenase (in words): inhibit that type 5 enzyme
- IC50 (read-out: Inhibition Type V 17β-HSD IC50): 17.4 ± 2.8 nM

From US6541463B1, “Inhibitors of type 5 and type 3 17β-hydroxysteroid dehydrogenase and methods for their use” (Endorecherche, Inc., priority 1998, dated 2003)
